ChEMBL document CHEMBL3508574 (2016)

How the values were obtained:
[1] = Cmax of total HMG-CoA reductase inhibitor (both lactone and open acid) following administration of simvastatin tablet at 80 mg dose level in hypercholesterolemic patients; format: ADME, organism-based, Plasma; settings: human, in vivo, po
[2] = AUC of total HMG-CoA reductase inhibitor (both lactone and open acid) following administration of simvastatin tablet at 160 mg dose level in hypercholesterolemic patients; format: ADME, organism-based, Plasma; settings: human, in vivo, po
[3] = AUC of total HMG-CoA reductase inhibitor (both lactone and open acid) following administration of simvastatin tablet at 80 mg dose level in hypercholesterolemic patients; format: ADME, organism-based, Plasma; settings: human, in vivo, po
[4] = Mean elimination half-life of simvastatin following administration of reference product Zocor 80 mg tablet in healthy human; format: ADME, organism-based; settings: plasma, po
[5] = Mean Cmax of simvastatin following administration of simvastatin 80 mg orally disintegrating tablet in healthy human; format: ADME, organism-based; settings: plasma, po
[6] = Mean AUC (0-infinity) of simvastatin following administration of simvastatin 80 mg orally disintegrating tablet in healthy human; format: ADME, organism-based; settings: plasma, po, read-out: AUC (0-infinity)
[7] = Mean elimination rate constant of simvastatin following administration of reference product Zocor 80 mg tablet in healthy human; format: ADME, organism-based; settings: plasma, po
[8] = Absorption of simvastatin following oral administration of simvastatin in rat; format: ADME, organism-based; settings: in vivo
[9] = Absorption of simvastatin following oral administration of simvastatin in dog; format: ADME, organism-based, Canis lupus familiaris; settings: in vivo
[10] = Cmax of total HMG-CoA reductase inhibitor (both lactone and open acid) following administration of simvastatin tablet at 160 mg dose level in hypercholesterolemic patients; format: ADME, organism-based, Plasma; settings: human, in vivo, po
[11] = Absorption of simvastatin following oral administration of simvastatin in human; format: ADME, organism-based; settings: in vivo
[12] = Mean elimination half-life of simvastatin following administration of simvastatin 80 mg orally disintegrating tablet in healthy human; format: ADME, organism-based; settings: plasma, po
Canis lupus familiaris [13] = assay: Plasma protein binding of simvastatin following oral dose of simvastatin at 2 mg.Kg-1 level in dog; format: organism-based; parameters: dose 2 mg.Kg-1, dosed compound id 2.4681e+06, dosed compound name, dose level, study doses mg.Kg-1
[14] = Mean elimination rate constant of simvastatin following administration of simvastatin 80 mg orally disintegrating tablet in healthy human; format: ADME, organism-based; settings: plasma, po
[15] = Mean AUC (0-infinity) of simvastatin following administration of reference product Zocor 80 mg tablet in healthy human; format: ADME, organism-based; settings: plasma, po, read-out: AUC (0-infinity)
[16] = Mean AUC (0-t) of simvastatin following administration of reference product Zocor 80 mg tablet in healthy human; format: ADME, organism-based; settings: plasma, po
[17] = AUC of total HMG-CoA reductase inhibitor (both lactone and open acid) following administration of simvastatin tablet at 40 mg dose level in hypercholesterolemic patients; format: ADME, organism-based, Plasma; settings: human, in vivo, po
Homo sapiens [18] = assay: Plasma protein binding of simvastatin following oral dose of simvastatin at […] level in human; format: organism-based; parameters: dose 40 mg, dosed compound id 2.4681e+06, dosed compound name, dose level, study doses mg
[19] = Mean Cmax of simvastatin following administration of reference product Zocor 80 mg tablet in healthy human; format: ADME, organism-based; settings: plasma, po
[20] = Cmax of total HMG-CoA reductase inhibitor (both lactone and open acid) following administration of simvastatin tablet at 40 mg dose level in hypercholesterolemic patients; format: ADME, organism-based, Plasma; settings: human, in vivo, po
[21] = Mean AUC (0-t) of simvastatin following administration of simvastatin 80 mg orally disintegrating tablet in healthy human; format: ADME, organism-based; settings: plasma, po
Homo sapiens [22] = assay: Plasma protein binding of simvastatin acid following oral dose of simvastatin at […] level in human; format: organism-based; parameters: dose 40 mg, dosed compound id 2.4681e+06, dosed compound name, dose level, study doses mg
[23] = Mean elimination half-life of simvastatin acid following administration of reference product Zocor 80 mg tablet in healthy human; format: ADME, organism-based, Plasma; settings: in vivo, po
[24] = Mean Tmax of simvastatin acid following administration of simvastatin 80 mg orally disintegrating tablet in healthy human; format: ADME, organism-based, Plasma; settings: in vivo, po
[25] = Cmax of active HMG-CoA reductase inhibitor L-654,969 following administration of simvastatin tablet at 160 mg dose level in hypercholesterolemic patients; format: ADME, organism-based, Plasma; settings: human, in vivo, po
[26] = Tmax of active HMG-CoA reductase inhibitor L-654,969 following administration of simvastatin tablet at 80 mg dose level in hypercholesterolemic patients; format: ADME, organism-based, Plasma; settings: human, in vivo, po
[27] = AUC of active HMG-CoA reductase inhibitor L-654,969 following administration of simvastatin tablet at 80 mg dose level in hypercholesterolemic patients; format: ADME, organism-based, Plasma; settings: human, in vivo, po
[28] = AUC of active HMG-CoA reductase inhibitor L-654,969 following administration of simvastatin tablet at 160 mg dose level in hypercholesterolemic patients; format: ADME, organism-based, Plasma; settings: human, in vivo, po
[29] = Mean AUC (0-infinity) of simvastatin acid following administration of reference product Zocor 80 mg tablet in healthy human; format: ADME, organism-based, Plasma; settings: in vivo, po
[30] = Hepatic extraction of active beta-hydroxy acid form of simvastatin following oral administration of simvastatin in human; format: ADME, organism-based, Liver; settings: in vivo
[31] = Mean elimination rate constant of simvastatin acid following administration of reference product Zocor 80 mg tablet in healthy human; format: ADME, organism-based, Plasma; settings: in vivo, po
[32] = Cmax of active HMG-CoA reductase inhibitor L-654,969 following administration of simvastatin tablet at 40 mg dose level in hypercholesterolemic patients; format: ADME, organism-based, Plasma; settings: human, in vivo, po
[33] = Mean AUC (0-t) of simvastatin acid following administration of simvastatin 80 mg orally disintegrating tablet in healthy human; format: ADME, organism-based, Plasma; settings: in vivo, po
[34] = Extrahepatic tissue penetration of active beta-hydroxy acid form of simvastatin following oral administration of simvastatin in rat; format: ADME, organism-based; settings: in vivo
[35] = Extrahepatic tissue penetration of active beta-hydroxy acid form of simvastatin following oral administration of simvastatin in dog; format: ADME, organism-based, Canis lupus familiaris; settings: in vivo
[36] = Mean Cmax of simvastatin acid following administration of reference product Zocor 80 mg tablet in healthy human; format: ADME, organism-based, Plasma; settings: in vivo, po
[37] = Tmax of active HMG-CoA reductase inhibitor L-654,969 following administration of simvastatin tablet at 160 mg dose level in hypercholesterolemic patients; format: ADME, organism-based, Plasma; settings: human, in vivo, po
Canis lupus familiaris [38] = assay: Plasma protein binding of simvastatin acid following oral dose of simvastatin at 2 mg.Kg-1 level in dog; format: organism-based; parameters: dose 2 mg.Kg-1, dosed compound id 2.4681e+06, dosed compound name, dose level, study doses mg.Kg-1
[39] = Extensive biliary excretion of active beta-hydroxy acid form of simvastatin following oral administration of simvastatin in rat; format: ADME, organism-based, Bile; settings: in vivo
[40] = Hepatic extraction of active beta-hydroxy acid form of simvastatin following oral administration of simvastatin in dog; format: ADME, organism-based, Canis lupus familiaris, Liver; settings: in vivo
[41] = Mean elimination half-life of simvastatin acid following administration of simvastatin 80 mg orally disintegrating tablet in healthy human; format: ADME, organism-based, Plasma; settings: in vivo, po
[42] = Cmax of active HMG-CoA reductase inhibitor L-654,969 following administration of simvastatin tablet at 80 mg dose level in hypercholesterolemic patients; format: ADME, organism-based, Plasma; settings: human, in vivo, po
[43] = Extensive biliary excretion of active beta-hydroxy acid form of simvastatin following oral administration of simvastatin in human; format: ADME, organism-based, Bile; settings: in vivo
[44] = Tmax of active HMG-CoA reductase inhibitor L-654,969 following administration of simvastatin tablet at 40 mg dose level in hypercholesterolemic patients; format: ADME, organism-based, Plasma; settings: human, in vivo, po
[45] = Mean Cmax of simvastatin acid following administration of simvastatin 80 mg orally disintegrating tablet in healthy human; format: ADME, organism-based, Plasma; settings: in vivo, po
[46] = Hepatic extraction of active beta-hydroxy acid form of simvastatin following oral administration of simvastatin in rat; format: ADME, organism-based, Liver; settings: in vivo
[47] = Mean AUC (0-infinity) of simvastatin acid following administration of simvastatin 80 mg orally disintegrating tablet in healthy human; format: ADME, organism-based, Plasma; settings: in vivo, po
[48] = Mean Tmax of simvastatin acid following administration of reference product Zocor 80 mg tablet in healthy human; format: ADME, organism-based, Plasma; settings: in vivo, po
[49] = AUC of active HMG-CoA reductase inhibitor L-654,969 following administration of simvastatin tablet at 40 mg dose level in hypercholesterolemic patients; format: ADME, organism-based, Plasma; settings: human, in vivo, po
[50] = Extrahepatic tissue penetration of active beta-hydroxy acid form of simvastatin following oral administration of simvastatin in human; format: ADME, organism-based; settings: in vivo
[51] = Extensive biliary excretion of active beta-hydroxy acid form of simvastatin following oral administration of simvastatin in dog; format: ADME, organism-based, Canis lupus familiaris, Bile; settings: in vivo
[52] = Bioavailability of active beta-hydroxy acid form of simvastatin following oral administration of simvastatin in dog; format: ADME, organism-based, Canis lupus familiaris; settings: in vivo
[53] = Mean elimination rate constant of simvastatin acid following administration of simvastatin 80 mg orally disintegrating tablet in healthy human; format: ADME, organism-based, Plasma; settings: in vivo, po
[54] = Mean AUC (0-t) of simvastatin acid following administration of reference product Zocor 80 mg tablet in healthy human; format: ADME, organism-based, Plasma; settings: in vivo, po
[55] = Bioavailability of active beta-hydroxy acid form of simvastatin following oral administration of simvastatin in human; format: ADME, organism-based; settings: in vivo
[56] = Bioavailability of active beta-hydroxy acid form of simvastatin following oral administration of simvastatin in rat; format: ADME, organism-based; settings: in vivo

`CCC(C)(C)C(=O)O[C@H]1C[C@@H](C)C=C2C=C[C@H](C)[C@H](CC[C@@H]3C[C@@H](O)CC(=O)O3)[C@H]21` [SIMVASTATIN] showed a Cmax [1] of 165 ng.eq.ml-1, an AUC [2] of 1533 ng.eq.h.ml-1 and an AUC [3] of 636 ng.eq.h.ml-1. For the same compound, the half-life [4] was 10.1 h, the Cmax [5] was 18.3 ng/mL and the AUC(0-inf) [6] was 98.5 ng·h/mL. The k el [7] was 3.02e-05 s⁻¹, the Absorption [8] was “Simvastatin is well absorbed in rats” and the Absorption [9] was “Simvastatin is well absorbed in dogs”. The Cmax [10] was 404 ng.eq.ml-1, the Absorption [11] was “Simvastatin is well absorbed in humans” and the half-life [12] was 9.39 h. For the same compound, the PPB (Canis lupus familiaris [13]) was 97%, the k el [14] was 4.16e-05 s⁻¹ and the AUC(0-inf) [15] was 102 ng·h/mL. The AUC(0-t) [16] was 83.9 ng·h/mL, the AUC [17] was 316 ng.eq.h.ml-1 and the PPB (Homo sapiens [18]) was 97%. The Cmax [19] was 19.4 ng/mL, the Cmax [20] was 75 ng.eq.ml-1 and the AUC(0-t) [21] was 77.6 ng·h/mL.

`CCC(C)(C)C(=O)O[C@H]1C[C@@H](C)C=C2C=C[C@H](C)[C@H](CC[C@@H](O)C[C@@H](O)CC(=O)O)[C@H]21` [TENIVASTATIN] showed a PPB (Homo sapiens [22]) of 93%, a t1/2 [23] of 8.67 h and a Tmax [24] of 4.42 h. It also gave a Cmax [25] of 138 ng.eq.ml-1, a Tmax [26] of 1.8 h and an AUC [27] of 263 ng.eq.h.ml-1. The AUC [28] was 668 ng.eq.h.ml-1, the “AUC (0-infinity)” value [29] was 47.76 ng·h/mL and the Hepatic extraction [30] was “VALUE = Hepatic extraction of active beta-hydroxyacid form of simvastatin is high”. For the same compound, the Kel [31] was 0.1357 h⁻¹, the Cmax [32] was 21 ng.eq.ml-1 and the “AUC(0-t)” value [33] was 37.67 ng·h/mL. For the same compound, the Compound recovery [34] was “VALUE = Extrahepatic tissue penetration of active beta-hydroxyacid form of simvastatin is relatively poor”, the Compound recovery [35] was “VALUE = Extrahepatic tissue penetration of active beta-hydroxyacid form of simvastatin is relatively poor” and the Cmax [36] was 3.88 ng/mL. For the same compound, the Tmax [37] was 1.8 h, the PPB (Canis lupus familiaris [38]) was 93% and the Compound recovery [39] was “OUTCOME = Observed, VALUE = Biliary excretion of active beta-hydroxyacid form of simvastatin is extensive”. For the same compound, the Hepatic extraction [40] was “VALUE = Hepatic extraction of active beta-hydroxyacid form of simvastatin is high”, the t1/2 [41] was 5.95 h and the Cmax [42] was 50 ng.eq.ml-1. The Compound recovery [43] was “OUTCOME = Observed, VALUE = Biliary excretion of active beta-hydroxyacid form of simvastatin is extensive”, the Tmax [44] was 1.8 h and the Cmax [45] was 4.5 ng/mL. For the same compound, the Hepatic extraction [46] was “VALUE = Hepatic extraction of active beta-hydroxyacid form of simvastatin is high”, the “AUC (0-infinity)” value [47] was 41.54 ng·h/mL and the Tmax [48] was 4.35 h. The AUC [49] was 120 ng.eq.h.ml-1, the Compound recovery [50] was “VALUE = Extrahepatic tissue penetration of active beta-hydroxyacid form of simvastatin is relatively poor” and the Compound recovery [51] was “OUTCOME = Observed, VALUE = Biliary excretion of active beta-hydroxyacid form of simvastatin is extensive”. For the same compound, the F [52] was “The active beta-hydroxyacid form of simvastatin is poorly bioavailable in dogs”, the Kel [53] was 0.1554 h⁻¹ and the “AUC(0-t)” value [54] was 36.61 ng·h/mL. The F [55] was “The active beta-hydroxyacid form of simvastatin is poorly bioavailable in humans” and the F [56] was “The active beta-hydroxyacid form of simvastatin is poorly bioavailable in rats”.
